Patent EP0364941A1, “Branched-chain alkyl esters of 2-(4-(2-piperidino ethoxy)benzoyl)benzoic acid, processes for their preparation and their use as spasmolytic agents” (HOECHST AKTIENGESELLSCHAFT, priority 1988, dated 1990)

Key:
small intestine [1] = assay: Motility of the small intestine in the conscious dog; assay type: in vivo; conditions: for Area under the contraction curve, Postdrug 10 min: 10 min postdrug; for Area under the contraction curve, Postdrug 10 min / Area under the contraction curve, Postdrug 20 min / Area under the contraction curve, Postdrug 30 min / Area under the contraction curve, Postdrug 40 min / Area under the contraction curve, Postdrug 50 min / Area under the contraction curve, Postdrug 60 min / Area under the contraction curve, Predrug -20 - 0: phase I and II; for Area under the contraction curve, Postdrug 20 min: 20 min postdrug; for Area under the contraction curve, Postdrug 30 min: 30 min postdrug; for Area under the contraction curve, Postdrug 40 min: 40 min postdrug; for Area under the contraction curve, Postdrug 50 min: 50 min postdrug; for Area under the contraction curve, Postdrug 60 min: 60 min postdrug; for Inhibition Maximal / Inhibition Mean / ED50: phase I+II activity; for Area under the contraction curve, Predrug -20 - 0: predrug baseline -20 - 0 min; for Duration of action: when postdrug values reached 90 % or more of predrug values; for ED50: Canis lupus familiaris, iv
Source text: Male dogs (THG Tierhandelsgesellschaft Rodenbach, Hoe:BEAK (Beagle)) weighing 15 - 20 kg were used in all experiments. At least 4 weeks prior to the experiment the dogs had been equipped with miniaturized strain gage force transducers (T1-T3) (2x4 mm), sutured onto the gut at the locations mentioned below. The cables of the transducers were embedded into a cannula which carried the plug for external electric connection. This stainless steel cannula was implanted into the abdominal wall, close below the costal arch. Each transducer was connected to a measuring bridge. The signals were on line stored using a HP 9835 A computer, allowing later analysis of the data. • T1 : Proximal jejunum • T2 : Distal jejunum • T3 : Ileum
(§1) 18 hours prior to the experiment food was withdrawn from the animals, water ad libidum. All experiments started between 08:00 and 09:00 am.
The following motility parameters were determined: The integral under the […] at 10 min intervals (mNx10min) as an index of phase I + II activity. The duration of drug action (min.) The duration of the interdigestive migrating complex (IMC) (min) as a measure of phase III activity.
Test Compound II was given at doses of 0.2 and 0.5 mg/kg i.v. or 5 mg/kg i.g., dissolved in saline, in a volume of 1 ml/kg (i.v.) or 2 ml/kg (i.g.), n = 3 - 6. Control n = 26.
Buscopan was given at doses of 0.3 and 1 mg/kg i.v., dissolved in saline, in a volume of 1 ml/kg, n = 4 - 6. Pitofenone was given at doses of 1 mg/kg i.v., dissolved in saline, in a volume of 1 ml/kg, n = 8.
ID₅₀-values were determined graphically.

Porcine liver esterase = assay: Enzymatic hydrolysis rates by porcine liver esterase; assay type: in vitro ADME; conditions: test compound 1 mM, pH 8.0, 37°C
Protocol: Porcine liver esterase (0.5 U = 2 µg) was preincubated in 40 mM Tris-HCl buffer, pH 8.0, at 37°C for 5 min. The reaction was initiated with the addition of the test compound (final concentration, 1 mM) in the final volume of 250 µl. Enzyme reaction was terminated at different time intervals by the addition of 60 µl of 1 M acetic acid. The solution was made alkaline (pH 10.5) by adding 0.4 M NaOH and the alkaline solution was rapidly extracted (three times) with 2.5 ml of chloroform. An aliquot of the aqueous supernatant was diluted with double distilled water and the absorbance was measured at 290 nm. Amount of test compound III (molar extinction = 14,400) formed was calculated.

small intestine [2] = assay: Antispasmodic activity in anaesthetized dog (carbachol or acetylcholine induced intestinal contractions); assay type: in vivo; conditions: anaesthetised dog
Protocol: Male mongrel dogs of weight range 10 to 15 kg were anaesthetised with pentobarbitone sodium (35 mg/ kg,i.v.). Slow i.v. infusion of pentobarbitone (5 mg/kg/hour) was given for maintenance anaesthesia. The endotracheal tube was inserted to facilitate spontaneous breathing. Both femoral artery and vein were cannulated respectively for recording blood pressure and administering drugs. After laparotomy, a small portion of small intestine distal to duodenum was isolated and saline filled balloon inserted and the opening was sutured. A fine polyethylene cannula was then inserted into the mesenteric artery which supplies to the area of intestine containing balloon for injection of carbachol or acetylcholine. A Statham pressure transducer was then attached to balloon cannula for recording both circular and longitudinal muscle contractions. All the parameters were recorded on 4 channel Nihon-Kohden recorder. The intestinal contractions were recorded after administering a standard dose of carbachol or acetylcholine (0.5 to 3 µg). Test compounds I and II were given at different doses 3,10 and 20 mg/kg intra-duodenally and spasmolytic activity was assessed at various time intervals. Anti-spasmodic activity was assessed by calculating percent reduction in agonist induced contractions and also noting onset and duration of activity. The test compounds were dissolved in distilled water (1% soln.). Table 3 Test compounds I and II were given at different doses (10, 30, 100, 300 and 1000 µg/kg) intravenously and spasmolytic activity was assessed at different time intervals. Anti-spasmodic activity was assessed by calculating percent reduction in agonist induced contractions. The ID₅₀ value was calculated from the dose response curve.

large Bowel = assay: Motility of the large bowel (colonic motor complex) in conscious dogs; assay type: in vivo
Source text: Male dogs (THG Tierhandelsgesellschaft Rodenbach, Hoe:BEAK (Beagle)) weighing 15 - 20 kg were used in all experiments.
At least 4 weeks prior the experiment the dogs had been equipped with miniaturised strain gage force transducers (T1-T2) (2x4mm), sutured onto the gut at the locations mentioned below. The cables of the transducers were embedded into a cannula which carried the plug for external electric connection. This stainless steel cannula was implanted into the abdominal wall, close below the costal arch. Each transducer was connected to a measuring bridge. The signals were on line stored using a HP 9835 A computer, allowing later analysis of the data. • T1 : Colon ascendens 10 cm aborafrom the ileoceval valve (ICV) • T2 : Colon transversum 25 cm aborad from the ICV
as §1
The following parameters were determined: The duration of the cycle (min) The duration of the colonic motor complex (CMC) (min) The maximal height of the concentrations (AU: arbitrary units)
Data from the two recording sites (T1-T2) were pooled. […]
For detection of significant differences (p < 0.05) the unpaired t-test was used. Only significant differences were indicated by *.

With `CC(C)OC(=O)c1ccccc1C(=O)c1ccc(OCCN2CCCCC2)cc1.Cl` [Test Compound II, Isopropyl-2-[4-(2-piperidino-ethoxy)-benzoyl]-benzoate hydrochloride] the “Area under the contraction curve, Postdrug 10 min” value (small intestine [1]; 0.2 mg/kg i.v.) was 1.54 mN x 10 min, the “Area under the contraction curve, Postdrug 20 min” value (small intestine [1]; 0.2 mg/kg i.v.) was 1.42 mN x 10 min and the “Area under the contraction curve, Postdrug 30 min” value (small intestine [1]; 0.2 mg/kg i.v.) was 1.88 mN x 10 min. The “Area under the contraction curve, Postdrug 40 min” value (small intestine [1]; 0.2 mg/kg i.v.) was 1.77 mN x 10 min, the “Area under the contraction curve, Postdrug 50 min” value (small intestine [1]; 0.2 mg/kg i.v.) was 1.78 mN x 10 min and the “Area under the contraction curve, Postdrug 60 min” value (small intestine [1]; 0.2 mg/kg i.v.) was 2.19 mN x 10 min. The “Inhibition Maximal” value (small intestine [1]; 0.2 mg/kg i.v.) was 34%, the “Inhibition Mean” value (small intestine [1]; 0.2 mg/kg i.v.) was 22 ± 4% and the “Area under the contraction curve, Predrug -20 - 0” value (small intestine [1]; 0.2 mg/kg i.v.) was 2.15 mN x 10 min. For the same compound, the Duration of action (small intestine [1]; 0.2 mg/kg i.v.) was 50 min, the “duration of inhibitory effect” value (small intestine [1]; 0.5 mg/kg i.v., conscious dog) was “approximately one” and the “Area under the contraction curve, Postdrug 10 min” value (small intestine [1]; 0.5 mg/kg i.v.) was 0.54 mN x 10 min. For the same compound, the “Area under the contraction curve, Postdrug 20 min” value (small intestine [1]; 0.5 mg/kg i.v.) was 0.50 mN x 10 min, the “Area under the contraction curve, Postdrug 30 min” value (small intestine [1]; 0.5 mg/kg i.v.) was 0.99 mN x 10 min and the “Area under the contraction curve, Postdrug 40 min” value (small intestine [1]; 0.5 mg/kg i.v.) was 1.17 mN x 10 min. The “Area under the contraction curve, Postdrug 50 min” value (small intestine [1]; 0.5 mg/kg i.v.) was 1.61 mN x 10 min, the “Area under the contraction curve, Postdrug 60 min” value (small intestine [1]; 0.5 mg/kg i.v.) was 2.46 mN x 10 min and the “Inhibition Maximal” value (small intestine [1]; 0.5 mg/kg i.v.) was 81%. For the same compound, the “Inhibition Mean” value (small intestine [1]; 0.5 mg/kg i.v.) was 54 ± 11%, the “Area under the contraction curve, Predrug -20 - 0” value (small intestine [1]; 0.5 mg/kg i.v.) was 2.62 mN x 10 min and the Duration of action (small intestine [1]; 0.5 mg/kg i.v.) was 60 min. For the same compound, the Duration of cycles (small intestine [1]; 5 mg/kg intragastrical, Phase III activity) was 298 ± 18 min, the “inhibition of phase III activity” value (small intestine [1]; 5 mg/kg intragastrically, conscious dog) was “pronounced inhibition” and the ED50 (small intestine [1]; conscious dog, read-out: intravenous IC₅₀-values determined from maximal inhibition) was 0.22 mg/kg. The ED50 (small intestine [1]; determined graphically, read-out: ID₅₀) was 0.26 mg/kg, the “µmol test compound III formed per mg protein per ml” value (Porcine liver esterase; Time 0.0 hours) was 0.00 µmol per mg protein per ml and the “µmol test compound III formed per mg protein per ml” value (Porcine liver esterase; Time 0.5 hours) was 0.05 µmol per mg protein per ml. The “µmol test compound III formed per mg protein per ml” value (Porcine liver esterase; Time 2.0 hours) was 0.10 µmol per mg protein per ml, the “µmol test compound III formed per mg protein per ml” value (Porcine liver esterase; Time 3.5 hours) was 0.10 µmol per mg protein per ml and the Duration (small intestine [2]; 3 mg/kg intra-duodenal) was 35 min. It also gave an On-set (small intestine [2]; 3 mg/kg intra-duodenal) of 7 min, a Percent Inhibition (small intestine [2]; 3 mg/kg intra-duodenal) of 54% and a Duration (small intestine [2]; 10 mg/kg intra-duodenal) of 78 min. The On-set (small intestine [2]; 10 mg/kg intra-duodenal) was 6.5 min, the Percent Inhibition (small intestine [2]; 10 mg/kg intra-duodenal) was 83% and the ED50 (small intestine [2]; Canis lupus familiaris, iv, read-out: ID₅₀) was 0.01 mg/kg. The Duration of action (small intestine [2]; intravenous administration) was > 60 min, the “effect on colonic motility” value (large Bowel; 1 mg/kg i.g.) was “uneffective” and the “Duration CMC” value (large Bowel; 1 mg/kg intragastrically) was 6 ± 2 min. The “Duration Cycle” value (large Bowel; 1 mg/kg intragastrically) was 28 ± 11 min, the “Max.heigth of CMC” value (large Bowel; 1 mg/kg intragastrically) was 50±25 AU and the “Total number of spikes” value (large Bowel; 1 mg/kg intragastrically) was 5.6±1.7 n/CMC. For the same compound, the “Duration CMC” value (large Bowel; 3 mg/kg intragastrically) was 11 ± 3 min, the “Duration Cycle” value (large Bowel; 3 mg/kg intragastrically) was 136 ± 42 min and the “Max.heigth of CMC” value (large Bowel; 3 mg/kg intragastrically) was 40±23 AU. The “Total number of spikes” value (large Bowel; 3 mg/kg intragastrically) was 5.5±1.0 n/CMC and the “duration of complete inhibition of colonic motility (CMC)” value (large Bowel; 4 mg/kg i.g.) was “about 2 hours”.
